Measurements from US11919902B2, “Aryl-bipyridine amine derivatives as phosphatidylinositol phosphate kinase inhibitors” (HiberCell, Inc., priority 2017, dated 2024).

Key:
[1] = target: T1, PIP4K2A (full length protein, SignalChem) (Homo sapiens, UniProt P48426); experiment: Kinase Assay PIP4K2 A (Sprint); ADP-Glo biochemical assay; settings: Table 2; compounds listed under IC50 range headings
T1 construct: 4 nM PIP4K2A (full length protein, SignalChem); purchased SignalChem
T1 sequence (P48426 1-406): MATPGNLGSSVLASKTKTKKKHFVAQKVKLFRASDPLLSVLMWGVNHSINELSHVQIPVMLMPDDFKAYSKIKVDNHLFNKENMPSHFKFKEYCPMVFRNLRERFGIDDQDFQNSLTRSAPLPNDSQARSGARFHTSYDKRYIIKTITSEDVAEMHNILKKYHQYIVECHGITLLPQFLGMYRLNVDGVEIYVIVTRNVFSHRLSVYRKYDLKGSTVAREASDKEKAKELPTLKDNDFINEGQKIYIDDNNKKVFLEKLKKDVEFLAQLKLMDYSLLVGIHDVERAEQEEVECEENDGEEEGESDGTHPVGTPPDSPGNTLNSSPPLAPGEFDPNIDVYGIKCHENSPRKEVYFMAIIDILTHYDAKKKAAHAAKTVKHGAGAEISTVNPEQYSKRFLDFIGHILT
Outline: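 ADP-Glo luminescence detected ADP after a 1 h RT reaction started with 60 μM ATP solution. Before that, full-length PIP4K2A (4 nM in mix) with 100 μM PI(5)P diC8 was pre-incubated 15 min with compounds in MOPS buffer pH 7.2, 25 mM MgCl2, 0.005% Tween 20. IC50 derived from % inhibition relative to DMSO over 10 three-fold concentrations.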

GST tagged PIP4KtypeIIA = target: T2, GST tagged PIP4KtypeIIA (Homo sapiens, UniProt P48426); experiment: ADP-glo kinase assay PIP4K 2A (PIP4KtypeIIA inhibition assay); assay type: biochemical; settings: Table 3; compounds listed under IC50 range headings; 10 uM ATP, 0.5 nM PIP4KIIA
T2 construct: made in house; host or cells: E. coli
T2 sequence (P48426 1-406): T1 sequence (P48426 1-406)
Outline: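 Read-out was ADP-Glo luminescence converted to μM ADP, with IC50 plotted as % of no-inhibitor activity against log concentration. Reactions contained 10 μM ATP, 80 μM PI5P with DOPE carrier, and 0.5 nM GST-tagged PIP4KIIA (E. coli-expressed) in pH 7.3 HEPES/MgCl2 buffer with 5% DMSO. Enzyme and compound (≤4.8 μM) were preincubated 1 h at 27 °C before the 1 h reaction.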

GST tagged PIP4KtypeIIB = target: T3, GST tagged PIP4KtypeIIB (Homo sapiens, UniProt P78356); experiment: Trans-FI P kinase assay PIP4K2B (PIP4KtypeIIB inhibition assay); assay type: biochemical; settings: Table 4; compounds listed under IC50 range headings; 100 uM GTP, 5 nM PIP4KIIB; read-out: Trans-FI P kinase assays: PIP4K2B IC50
T3 construct: made in house; host or cells: E. coli
T3 sequence (P78356 1-416): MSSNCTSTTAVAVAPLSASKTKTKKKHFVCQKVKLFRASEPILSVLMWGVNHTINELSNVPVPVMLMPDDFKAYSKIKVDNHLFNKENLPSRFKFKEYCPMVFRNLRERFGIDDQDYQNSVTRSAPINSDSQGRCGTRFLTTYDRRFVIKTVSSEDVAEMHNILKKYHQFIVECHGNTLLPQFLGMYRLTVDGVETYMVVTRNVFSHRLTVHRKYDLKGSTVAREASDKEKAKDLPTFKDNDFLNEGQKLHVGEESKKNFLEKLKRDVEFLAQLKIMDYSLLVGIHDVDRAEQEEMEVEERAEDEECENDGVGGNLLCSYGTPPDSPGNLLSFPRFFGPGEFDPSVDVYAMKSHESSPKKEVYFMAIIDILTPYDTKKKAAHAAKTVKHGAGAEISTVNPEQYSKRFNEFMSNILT
Outline: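 Transcreener FI fluorescence, converted to GDP by calibration, tracked product from 5 nM E. coli-expressed GST-PIP4KIIB acting on 80 uM PI5P (DOPE carrier) with 100 uM GTP. Compound (top 4.8 uM final, 5% DMSO) was preincubated 1 h at 27 C before the 2 h reaction; IC50 fitted from residual activity.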

SMILES | IC50 [1] | IC50 (GST tagged PIP4KtypeIIA) | IC50 (GST tagged PIP4KtypeIIB)
CN(C)C(=O)c1ccc(-c2cncc(-c3ccnc4[nH]ccc34)c2)cc1 [Example 2, 4-(5-(1H-pyrrolo[2,3-b]pyridin-4-yl)pyridin-3-yl)-N,N-dimethylbenzamide] | 100 to 1000 nM | 100 to 1000 nM | 100 to 1000 nM
O=C(NC1COC1)c1cc2c(-c3cncc(-c4ccc(N5CCCC5=O)cc4)c3)ccnc2o1 [Example 166, N-(oxetan-3-yl)-4-(5-(4-(2-oxopyrrolidin-1-yl)phenyl)pyridin-3-yl)furo[2,3-b]pyridine-2-carboxamide] | 5 to 100 nM | 10 to 100 nM | 100 to 1000 nM
CN(C)C(=O)c1ccc(-c2cc(-c3ccnc4[nH]ccc34)cnc2N)nc1 [Example 21, 2′-amino-N,N-dimethyl-5′-(1H-pyrrolo[2,3-b]pyridin-4-yl)-[2,3′-bipyridine]-5-carboxamide] | 100 to 1000 nM | 100 to 1000 nM | 100 to 1000 nM
